Values joined by “and” are separate entries in the source; they are usually repeats but may differ in a detail not shown here. Equal values may be shown once.
Experiments:
APOE deficient mice [1] = assay: Example 2: aortic atheromatous lesion area by Oil red O staining in APOE deficient mice; format: in vivo, mouse; settings: end of the 24 week treatment period
Protocol: (§1) This example evaluated the effects of a tocopheryl phosphate mixture (TPm) (mono-tocopheryl phosphate and di-tocopheryl phosphate) on the development of atherosclerotic lesions in male APOE deficient mice.
(§2) Twenty-eight mice were divided into 4 groups: 2 control groups, a tocopherol acetate (TA) group (150 mg TA/kg feed) and a TPm group (200 mg TPm/kg feed containing 7% fat).
‘Induction phase’—The induction phase consisted of the first 16 weeks of the treatment period. During this period the animals were fed a mouse pellet diet low in vitamin E (containing less than 20 mg vitamin E per kg food, with a 7% total fat; modified version of the standard AIN93G rodent diet (SF05-040, Specialty feeds, Glen Forrest, Wash. Australia). Control animals were fed the diet alone, while TA-feed contained 150 mg TA/kg feed and TPm-feed contained 200 mg TPm/kg feed. These feeds delivered on average doses of 21 and 26 mg/kg body weight, respectively. The 26 mg/kg TPm dose was calculated to be the tocopherol equivalence of the TA dose. […]
Of the two control animal groups only one was placed on the SF04-055, HFHC diet, while the other control group was maintained on the SF05-040 mouse pellet diet (only 7% fat) for the entire treatment period 24 week treatment period (C24). […] The 26 mg/kg TPm dose was calculated to be the tocopherol equivalent to the TA dose. […]

APOE deficient mice [2] = assay: Example 2: plasma lipid levels in APOE deficient mice, compound in feed, induction and challenge phases; format: in vivo, mouse
Protocol: as §1, §2
‘Induction phase’—The induction phase consisted of the first 16 weeks of the treatment period.
‘Challenge phase’—This phase consisted of the final 8 weeks of the treatment period.
The 4 groups of animals were placed on the diet regimes outlined in the table below:
Of the two control animal groups only one was placed on the SF04-055, HFHC diet, while the other control group was maintained on the SF05-040 mouse pellet diet (only 7% fat) for the entire treatment period 24 week treatment period (C24). […] TA treated mice were fed pellets with 150 mg TA/kg feed and TPm treated mice were fed the pellets with 200 mg TPm/kg feed. […] The 26 mg/kg TPm dose was calculated to be the tocopherol equivalent to the TA dose.

[3] = Challenge phase (HFHC diet), week 24, TA 150 mg/kg feed, TPm 200 mg/kg feed
[4] = Induction phase, week 16, TA 150 mg/kg feed, TPm 200 mg/kg feed

CC(=O)Oc1c(C)c(C)c2c(c1C)CCC(C)(CCC[C@H](C)CCC[C@H](C)CCCC(C)C)O2 (stereo partly drawn) [TA, Tocopherol Acetate]
reduction in aortic lesion area / lesion formation compared to control mice on the same diet regime (APOE deficient mice [1]): 12%
Atheromatous lesion area, % Lesion coverage (mean ± SD) (APOE deficient mice [1]; HFHC diet final 8 weeks): 9.4% and 9.4 ± 1.1%
LDL-C level (mean ± SD) (APOE deficient mice [2]; Baseline, week 0): 8.85 ± 1.66 mmol/L
total cholesterol level (mean ± SD) (APOE deficient mice [2]; Baseline, week 0): 12.75 ± 1.41 mmol/L
triglyceride level (mean ± SD) (APOE deficient mice [2]; Baseline, week 0): 1.75 ± 0.25 mmol/L
LDL-C level (mean ± SD) (APOE deficient mice [2]; [3]): 18.98 ± 2.29 mmol/L
total cholesterol level (mean ± SD) (APOE deficient mice [2]; [3]): 47.13 ± 4.44 mmol/L
triglyceride level (mean ± SD) (APOE deficient mice [2]; [3]): 2.23 ± 0.29 mmol/L
LDL-C level (mean ± SD) (APOE deficient mice [2]; [4]): 6.51 ± 0.71 mmol/L
total cholesterol level (mean ± SD) (APOE deficient mice [2]; [4]): 14.47 ± 1.32 mmol/L
triglyceride level (mean ± SD) (APOE deficient mice [2]; [4]): 1.30 ± 0.22 mmol/L
reduction in plasma lipid levels (APOE deficient mice [2]; after the challenge phase (week 24)): no significant reduction

From patent publication US20090239827A1, “COMPOUNDS HAVING LIPID LOWERING PROPERTIES” (priority 2005, published 2009)
